Test results taken from EP0830890A1, “Surfactants for use in liquid/supercritical CO2” (AIR PRODUCTS AND CHEMICALS, INC., priority 1996, dated 1998).

Tests used:
Assay type in all cases: physicochemical
[1] = Solubility in CO2 by cloud point determination in a variable volume view cell; set-up: Pressure Describing Cloud Point Determinations For Surfactant/CO2 Concentrations / Pressure Describing Cloud Point Determinations For Surfactant/CO2Concentrations: unit not given here
Description: In the following examples, mixtures of acetylenic alcohols or diols and CO2 were prepared by adding the acetylenic alcohol or diol to a stainless steel variable volume view cell equiped with suitable relief devices, high pressure valves CO2 inlet and outlet and a sapphire window at one end. A high pressure syringe pump (High Pressure Products, HIP pump) was filled with liquid CO2 and used to quantitiatively add CO2 to the pressure vessel. The pressure vessel contained a magnetic stirrer and was stirred via a magnetic couple to a magnet located below the vessel.
A weighed amount of surfactant (0.5-10 weight %) was placed inside the cell chamber in front of the piston. The cell window was attached and 10 cc ? s of CO2, was added to the cell. The surfactant was mixed in the CO2 using a magnetic stirring bar. The cell was mounted in horizontally and then immersed in a water bath. After allowing the high pressure cell to attain thermal equilibrium the pressure within the cell was varied using a floating piston. The pressure was changed to monitor the cloud point as being indicative of insolubility. The operator viewed the floating piston through the sapphire window using a suitable optic device, the onset of insolubility was taken when the translucent solution changed to an orange/brown color due to the Tindall light scattering of the insoluble droplets. The onset of insolubility was checked several times by varying the pressure using the high pressure syringe pump.
A water bath was used to vary the temperature for each concentration. On completing the solubility studies at one concentration and one temperature series, a calibrated injector loop attached to the high pressure cell was filled with the surfactant via a syringe. Utilizing a six way valve to help inject this fixed amount of surfactant, the surfactant concentration within the high pressure cell was increased by a fixed increment. The solubility studies for this new CO2/surfactant concentration were measured at various temperatures in a similar manner to that previously described.

[2] = PEG (MW=600) uptake by surfactant/CO2 mixture (phase behavior, cloud point); conditions: Wt% Surfactant in CO2 0.897%
[3] = Interfacial tension of a PEG 600 drop in CO2/surfactant solution via pendant drop technique; conditions: for Interfacial Tension IFT: PEG (600) drop, 2 weight % Surfynol/CO2 solution
Source text: Interfacial activity can be monitored using the 'pendant drop' technique, ("Chemistry of Interfaces" M.J.Jaycock & Parfitt, John Wiley and Sons, New York p49-51). This method is utilized to measure the interfacial tension between a pendant drop and a continuous phase that surrounds the drop. When carbon dioxide is used as the continuous media, special high pressure equipment with sapphire view ports is required to maintain a solution of CO2 and surfactant, and to study the change in shape of the pendant drop for interfacial tension calculations. A general procedure for these high pressure phase behavior measurements may be found in Langmuir, vol. 10 1994, pg 3536-3541, by K. Harrison, K. P. Johnston, J. Goveas and E. A. O ? Rear.
Various ethoxylates of 2,4,7,9-tetramethyl-5-decyn-4,7-diol were used in the interfacial tension study. Table 3 gives the interfacial tension observed for ethoxylates of 2,4,7,9-tetramethyl-5-decyn-4,7-diol containing 20, 40, and 65 wt% ethylene oxide. The table also gives the interfacial tension of the polyethyleneglycol (PEG 600)drop within the pure CO2 media. […] It is interesting to note the actual reduction in interfacial tension. For a control PEG 600 drop at 2510 psi the interfacial tension was measured to be 3.39 dyne/cm (run #5in Table 3). […] This corresponds to lowering the interfacial tension by 0.54 dyne/cm, a 16% reduction. A surfactant/CO2 solution of 2 weight % (using the 40 wt% ethoxylated Surfynol surfactant) gave an interfacial tension of 1.57 dyne/cm. at a CO2 pressure of 4030 psi (run #33in Table 3). The corresponding PEG drop at 4093psi used as the control gave an interfacial tension of 1.92dyne/cm (run #18 in Table 3).

[4] = 2 weight % in CO2 at 2501 psi vs control PEG 600 drop at 2510 psi

Molecule: C#CC(C)(O)CC(C)C (stereo not drawn) [3,5-dimethyl-1-hexyn-3-ol]
- Pressure Describing Cloud Point Determinations For Surfactant/CO2 Concentrations ([1]; Surfactant Concn. in CO2 0.50 wt%, 35°C): 1480
- Pressure Describing Cloud Point Determinations For Surfactant/CO2 Concentrations ([1]; Surfactant Concn. in CO2 0.50 wt%, 45°C): 1800
- Pressure Describing Cloud Point Determinations For Surfactant/CO2 Concentrations ([1]; Surfactant Concn. in CO2 0.50 wt%, 55°C): 2200
- Pressure Describing Cloud Point Determinations For Surfactant/CO2 Concentrations ([1]; Surfactant Concn. in CO2 1.50 wt%, 35°C): 1530
- Pressure Describing Cloud Point Determinations For Surfactant/CO2 Concentrations ([1]; Surfactant Concn. in CO2 1.50 wt%, 45°C): 1900
- Pressure Describing Cloud Point Determinations For Surfactant/CO2 Concentrations ([1]; Surfactant Concn. in CO2 1.50 wt%, 55°C): 2260
- Pressure Describing Cloud Point Determinations For Surfactant/CO2 Concentrations ([1]; Surfactant Concn. in CO2 2.50 wt%, 35°C): 1500
- Pressure Describing Cloud Point Determinations For Surfactant/CO2 Concentrations ([1]; Surfactant Concn. in CO2 2.50 wt%, 45°C): 1860
- Pressure Describing Cloud Point Determinations For Surfactant/CO2 Concentrations ([1]; Surfactant Concn. in CO2 2.50 wt%, 55°C): 2210
- Pressure Describing Cloud Point Determinations For Surfactant/CO2 Concentrations ([1]; Surfactant Concn. in CO2 5.00 wt%, 35°C): 1380
- Pressure Describing Cloud Point Determinations For Surfactant/CO2 Concentrations ([1]; Surfactant Concn. in CO2 5.00 wt%, 45°C): 1770
- Pressure Describing Cloud Point Determinations For Surfactant/CO2 Concentrations ([1]; Surfactant Concn. in CO2 5.00 wt%, 55°C): 2120
- Pressure Describing Cloud Point Determinations For Surfactant/CO2 Concentrations ([1]; Surfactant Concn. in CO2 7.60 wt%, 35°C): 1280
- Pressure Describing Cloud Point Determinations For Surfactant/CO2 Concentrations ([1]; Surfactant Concn. in CO2 7.60 wt%, 45°C): 1680
- Pressure Describing Cloud Point Determinations For Surfactant/CO2 Concentrations ([1]; Surfactant Concn. in CO2 7.60 wt%, 55°C): 2030
- Pressure Describing Cloud Point Determinations For Surfactant/CO2 Concentrations ([1]; Surfactant Concn. in CO2 10.20 wt%, 35°C): 1200
- Pressure Describing Cloud Point Determinations For Surfactant/CO2 Concentrations ([1]; Surfactant Concn. in CO2 10.20 wt%, 45°C): 1590
- Pressure Describing Cloud Point Determinations For Surfactant/CO2 Concentrations ([1]; Surfactant Concn. in CO2 10.20 wt%, 55°C): 1950
- solubility levels by weight to CO2 ([1]; in CO2): 10.2 % by weight

Molecule: Ethoxylated 2,4,7,9-Tetramethyl-5-decyn-4,7-diol [AP-440]
- Pressure Describing Cloud Point Determinations For Surfactant/CO2Concentrations ([1]; Surfactant Concn. in CO2 0.6159 wt%, 25°C): 1200
- Pressure Describing Cloud Point Determinations For Surfactant/CO2Concentrations ([1]; Surfactant Concn. in CO2 0.6159 wt%, 45°C): 1750
- Pressure Describing Cloud Point Determinations For Surfactant/CO2Concentrations ([1]; Surfactant Concn. in CO2 1.2484 wt%, 25°C): 1840
- Pressure Describing Cloud Point Determinations For Surfactant/CO2Concentrations ([1]; Surfactant Concn. in CO2 1.2484 wt%, 35°C): 2610
- Pressure Describing Cloud Point Determinations For Surfactant/CO2Concentrations ([1]; Surfactant Concn. in CO2 1.8749 wt%, 60°C): 3740
- Pressure Describing Cloud Point Determinations For Surfactant/CO2Concentrations ([1]; Surfactant Concn. in CO2 2.8386 wt%, 25°C): 2580
- Pressure Describing Cloud Point Determinations For Surfactant/CO2Concentrations ([1]; Surfactant Concn. in CO2 2.8386 wt%, 45°C): 4300
- Pressure Describing Cloud Point Determinations For Surfactant/CO2Concentrations ([1]; Surfactant Concn. in CO2 2.8386 wt%, 60°C): 4510
- Pressure Describing Cloud Point Determinations For Surfactant/CO2Concentrations ([1]; Surfactant Concn. in CO2 4.0446 wt%, 25°C): 2700
- Pressure Describing Cloud Point Determinations For Surfactant/CO2Concentrations ([1]; Surfactant Concn. in CO2 4.0446 wt%, 35°C): 3740
- Pressure Describing Cloud Point Determinations For Surfactant/CO2Concentrations ([1]; Surfactant Concn. in CO2 4.0446 wt%, 45°C): 4440
- Pressure Describing Cloud Point Determinations For Surfactant/CO2Concentrations ([1]; Surfactant Concn. in CO2 4.0446 wt%, 60°C): 4670
- Wt% of PEG (MW=600) uptake ([2]; 4040 psi 25°C): 1.091%
- Wt% of PEG (MW=600) uptake ([2]; 4550 psi 25°C): 1.360%
- Wt% of PEG (MW=600) uptake ([2]; 5220 psi 25°C): 1.627%
- reduction in interfacial tension ([3]; 2 weight % in CO2 at 4030 psi vs control PEG drop at 4093psi): 18.2%
- Interfacial Tension IFT ([3]; 3146 psi (217 bar)): 2.04 dyne/cm
- Interfacial Tension IFT ([3]; 3522 psi (243 bar)): 1.96 dyne/cm
- Interfacial Tension IFT ([3]; 3536 psi (244 bar)): 1.93 dyne/cm
- Interfacial Tension IFT ([3]; 4028 psi (278 bar)): 1.56 dyne/cm
- Interfacial Tension IFT ([3]; 4030 psi (278 bar)): 1.57 dyne/cm
- Interfacial Tension IFT ([3]; 4568 psi (315 bar)): 1.38 dyne/cm
- Interfacial Tension IFT ([3]; 4592 psi (317 bar)): 1.35 dyne/cm

Molecule: Ethoxylated 2,4,7,9-Tetramethyl-5-decyn-4,7-diol [AP-420]
- Pressure Describing Cloud Point Determinations For Surfactant/CO2Concentrations ([1]; Surfactant Concn. in CO2 1.3646 wt%, 25°C): 1410
- Pressure Describing Cloud Point Determinations For Surfactant/CO2Concentrations ([1]; Surfactant Concn. in CO2 1.3646 wt%, 35°C): 2040
- Pressure Describing Cloud Point Determinations For Surfactant/CO2Concentrations ([1]; Surfactant Concn. in CO2 1.3646 wt%, 60°C): 3060
- Pressure Describing Cloud Point Determinations For Surfactant/CO2Concentrations ([1]; Surfactant Concn. in CO2 2.6028 wt%, 35°C): 2710
- Pressure Describing Cloud Point Determinations For Surfactant/CO2Concentrations ([1]; Surfactant Concn. in CO2 2.6028 wt%, 60°C): 4040
- Pressure Describing Cloud Point Determinations For Surfactant/CO2Concentrations ([1]; Surfactant Concn. in CO2 2.6028 wt%, 65°C): 4330
- Pressure Describing Cloud Point Determinations For Surfactant/CO2Concentrations ([1]; Surfactant Concn. in CO2 3.2104 wt%, 35°C): 2990
- Pressure Describing Cloud Point Determinations For Surfactant/CO2Concentrations ([1]; Surfactant Concn. in CO2 3.2104 wt%, 60°C): 3950
- Pressure Describing Cloud Point Determinations For Surfactant/CO2Concentrations ([1]; Surfactant Concn. in CO2 3.2104 wt%, 65°C): 4330
- Pressure Describing Cloud Point Determinations For Surfactant/CO2Concentrations ([1]; Surfactant Concn. in CO2 3.8330 wt%, 25°C): 1870
- Pressure Describing Cloud Point Determinations For Surfactant/CO2Concentrations ([1]; Surfactant Concn. in CO2 3.8330 wt%, 45°C): 2860
- Pressure Describing Cloud Point Determinations For Surfactant/CO2Concentrations ([1]; Surfactant Concn. in CO2 3.8330 wt%, 65°C): 3770
- surfactant is soluble in CO2 ([1]; in CO2): up to 4 wt%
- lowering the interfacial tension [3, 4]: 0.54 dyne/cm
- reduction in interfacial tension [3, 4]: 16%
- Interfacial Tension IFT ([3]; 1984 psi (137 bar)): 3.45 dyne/cm
- Interfacial Tension IFT ([3]; 2140 psi (148 bar)): 3.05 dyne/cm
- Interfacial Tension IFT ([3]; 2498 psi (172 bar)): 2.75 dyne/cm
- Interfacial Tension IFT ([3]; 2501 psi (173 bar)): 2.85 dyne/cm
- Interfacial Tension IFT ([3]; 3007 psi (207 bar)): 2.32 dyne/cm
- Interfacial Tension IFT ([3]; 3574 psi (246 bar)): 1.83 dyne/cm
